Reference: paper PMC4336777 (Archives of biochemistry and biophysics, 2014)
Entries after “also recorded” stand apart in the source; their conditions may differ. Like-named read-outs stand apart in the source and are kept apart here.

Key:
Myeloperoxidase (MPO) [1] = target: T1, Myeloperoxidase (MPO) (Homo sapiens, UniProt P05164); assay: MPO fluorescence stopped flow assay; conditions: for k−3: same fixed constants; for Akaike weight / ΔAICc: Dynafit 3 model discrimination; for best fitting slow binding inhibition model: Akaike information criterion based discrimination
Myeloperoxidase (MPO) [2] = target: T1, Myeloperoxidase (MPO); conditions: for apparent kcat of MPO for ADHP in presence of inhibitor: Lineweaver-Burk
Myeloperoxidase (MPO) [3] = target: T1, Myeloperoxidase (MPO); conditions: MPO 23 nM pre-incubated with inhibitor 1 hr without H2O2, dialysis, then H2O2
Myeloperoxidase (MPO) [4] = target: T1, Myeloperoxidase (MPO); assay: SDS-PAGE analysis of inhibitor-mediated cleavage of MPO; type: biochemical; conditions: MPO 1.2 μM, ADHP 40 μM, inhibitor 0-25 mM, H2O2 20 μM, 10 min, room temperature
[5] = 1 or 2-step slow tight-binding fit, DynaFit 3, fixed k+1 = 10 μM^−1s^−1, k−1 = 80 s^−1, k+2 = 224 s^−1, pH 5.6, 25°C
[6] = 1 or 2-step slow tight-binding fit, DynaFit 3
[7] = 2-step slow tight-binding fit, DynaFit 3

T1 sequence (P05164 165-273 limits assumed): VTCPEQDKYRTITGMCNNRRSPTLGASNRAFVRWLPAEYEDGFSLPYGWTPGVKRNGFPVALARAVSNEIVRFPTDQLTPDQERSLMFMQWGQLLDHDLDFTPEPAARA
T1 sequence (P05164 279-745 limits assumed): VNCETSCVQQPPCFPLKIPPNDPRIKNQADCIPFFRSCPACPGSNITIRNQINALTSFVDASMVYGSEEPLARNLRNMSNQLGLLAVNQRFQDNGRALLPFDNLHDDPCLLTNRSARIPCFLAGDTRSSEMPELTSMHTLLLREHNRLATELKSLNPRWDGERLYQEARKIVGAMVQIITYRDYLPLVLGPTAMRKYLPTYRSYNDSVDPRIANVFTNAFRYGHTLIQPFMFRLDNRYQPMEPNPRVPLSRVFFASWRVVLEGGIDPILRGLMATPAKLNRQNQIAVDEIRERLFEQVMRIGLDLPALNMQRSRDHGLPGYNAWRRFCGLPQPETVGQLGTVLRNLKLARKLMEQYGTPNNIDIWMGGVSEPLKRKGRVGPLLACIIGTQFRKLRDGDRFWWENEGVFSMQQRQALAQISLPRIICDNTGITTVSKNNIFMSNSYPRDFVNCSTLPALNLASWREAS

| Structure (SMILES) | k+3 (Myeloperoxidase (MPO) [1]; [5]) | Ki (Myeloperoxidase (MPO) [1]; Ki, Ki = k−3/k+3, DynaFit 3) | k−3 (Myeloperoxidase (MPO) [1]; [6]) | Akaike weight (Myeloperoxidase (MPO) [1]; 1 step model) | ΔAICc (Myeloperoxidase (MPO) [1]; 1 step model) | Akaike weight (Myeloperoxidase (MPO) [1]; 2 step model) | ΔAICc (Myeloperoxidase (MPO) [1]; 2 step model) | best fitting slow binding inhibition model (Myeloperoxidase (MPO) [1]) | other results |
| --- | --- | --- | --- | --- | --- | --- | --- | --- | --- |
| [N-]=[N+]=[N-].[Na+] [NaN3, sodium azide, reference compound] | – | – | 0.156 ± 0.001 s⁻¹ | 0.8814 | 0 | 0.1186 | 4.0 | one-step slow binding inhibition model | type of inhibition with ADHP (Myeloperoxidase (MPO) [2]; Lineweaver-Burk plots, 0, 7.5, 30 μM NaN3): competitive inhibition or mixed-type inhibition; apparent kcat of MPO for ADHP in presence of inhibitor (Myeloperoxidase (MPO) [2]; NaN3 7.5 μM): 161 s⁻¹; apparent kcat of MPO for ADHP in presence of inhibitor (Myeloperoxidase (MPO) [2]; NaN3 30 μM): 108 s⁻¹; fold reduction in apparent specificity constant (kcat/Km) (Myeloperoxidase (MPO) [2]; native system versus 30 μM NaN3): 11 fold; reversibility of inhibitor binding to MPO after equilibrium dialysis (Myeloperoxidase (MPO) [3]): reversible; Ki (Myeloperoxidase (MPO) [1]; Ki = k−3/k+3, DynaFit 3): 840 nM; k+3 (Myeloperoxidase (MPO) [1]; pH 5.6): 0.185 ± 0.0018 µM⁻¹ s⁻¹ |
| NNC(=O)c1ccccc1 [BAH, benzoic acid hydrazide] | 0.0098 ± 5.47E-05 μM^−1s^−1 | 690 nM | 0.0068 ± 9.5E-05 s^−1 | 0.9969 | 0 | 0.00315 | 11.5 | – | cleavage of MPO light chain-heme from heavy chain (Myeloperoxidase (MPO) [4]): light chain of MPO is cleaved from MPO |
| CC(=O)N1c2ccc(O)cc2Oc2cc(O)ccc21 [ADHP, 10-acetyl-3,7-dihydroxyphenoxazine, reference compound] | – | – | – | – | – | – | – | – | kon (Myeloperoxidase (MPO) [1]; read-out: apparent second order rate constant (K^appon)): 2100 ± 200 M⁻¹ s⁻¹ |
| OO [H2O2, hydrogen peroxide] | – | – | – | – | – | – | – | – | Ki (Myeloperoxidase (MPO) [2]; read-out: apparent inhibitory rate constant Ki (substrate inhibition)): 10.8 nM |
| NNC(=O)c1ccccc1N [2-ABAH, 2-aminobenzoic acid hydrazide] | 0.10 ± 0.0014 µM⁻¹ s⁻¹ | 260 nM | 0.026 ± 0.0003 s⁻¹ | 0.01127 | 8.9 | 0.9887 | 0 | two-step slow binding inhibitor; also recorded: two-step mechanism | k+4 (Myeloperoxidase (MPO) [1]; [7]): 0.0067 ± 0.0004 s⁻¹; k−4 (Myeloperoxidase (MPO) [1]; [7]): 0.0094 ± 0.002 s⁻¹; Ki (Myeloperoxidase (MPO) [1]; Ki* (overall inhibition constant, two-step model), two-step slow tight-binding model, Eq. 9): 160 nM; fold higher affinity inhibitor of Compound I as compared to isoniazid (Myeloperoxidase (MPO) [1]; from Ki* versus Ki of isoniazid): 62 fold |
| NNC(=O)c1ccc(C(F)(F)F)cc1 [4-TFMBAH, 4-(trifluoromethyl) benzoic acid hydrazide] | 0.0013 ± 1.36E-05 μM^−1s^−1 | 3080 nM | 0.004 ± 0.0002 s⁻¹ | 0.909 | 0 | 0.09104 | 4.6 | one-step slow binding inhibition model | – |

Now from value to molecule, other results behind:

| k+3 (Myeloperoxidase (MPO) [1]; [5]) | Ki (Myeloperoxidase (MPO) [1]; Ki, Ki = k−3/k+3, DynaFit 3) | Structure (SMILES) | k−3 (Myeloperoxidase (MPO) [1]; [6]) | Akaike weight (Myeloperoxidase (MPO) [1]; 1 step model) | ΔAICc (Myeloperoxidase (MPO) [1]; 1 step model) | Akaike weight (Myeloperoxidase (MPO) [1]; 2 step model) | ΔAICc (Myeloperoxidase (MPO) [1]; 2 step model) | best fitting slow binding inhibition model (Myeloperoxidase (MPO) [1]) | other results |
| --- | --- | --- | --- | --- | --- | --- | --- | --- | --- |
| 0.0011 ± 7.31E-06 μM^−1s^−1 | 10000 nM | NNC(=O)c1ccncc1 [Isoniazid, isonicotinylhydrazine, reference compound] | 0.011 ± 0.0001 s⁻¹ | 0.8857 | 0 | 0.1143 | 4.1 | one-step slow binding inhibition model | – |
| 0.0075 ± 4.93E-05 μM^−1s^−1 | 830 nM | NNC(=O)c1ccc(F)cc1 [4-FBAH, 4-fluorobenzoic acid hydrazide] | 0.0062 ± 0.0001 s⁻¹ | 0.9196 | 0 | 0.0804 | 4.9 | – | – |
| – | 3700 nM | NNC(=O)c1ccc([N+](=O)[O-])cc1 [4-NBAH, 4-nitrobenzoic acid hydrazide] | – | – | – | – | – | – | – |
| – | 560 nM | CN(C)c1cccc(C(=O)NN)c1 [3-DMABAH, 3-(dimethylamino) benzoic acid hydrazide] | – | – | – | – | – | – | – |
